Like-named read-outs stand apart in the source and are kept apart here.
Assays:
[1] = tested on: Colo205-TCF/LEF-Luciferase (Luc) tumor; experiment: In vivo inhibition of TCF/LEF reporter activity in Colo-205 tumors; parameters: concentration or dose not given beside the values; settings: TCF/LEF luciferase reporter in Colo-205 tumors, nu/nu mice, oral gavage
In short: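 Female nu/nu mice carried subcutaneous Colo205-TCF/LEF-luciferase tumours (200–500 mm^3), n=4 per group. Compound was given by oral gavage in 1:3:5:1 EtOH:DMSO:PEG-400:H2O at 10 ml/kg, with vehicle as control. Luciferase activity in tumour lysates (Steady-Glo) was normalised to BCA protein.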

[2] = tested on: non-small cell lung cancer (NSCLC) adenocarcinoma line D33966; experiment: In vivo efficacy, NSCLC patient derived xenograft OD33966; parameters: species or system nu/nu mice; settings: NSCLC PDX OD33966, oral
Protocol: Female immune deficient mice (Charles River, 4-6 wks age) were anesthetized with Ketamine-Xylazine (140 mg/kg-14 mg/kg ip) and shaved. Puralube eye ointment was applied to the eyes to prevent desiccation of the corneas. Betadine and 70% ethanol was applied to the shaved location to sterilize the skin at the location of the incision. The animals were placed in a biosafety cabinet for the duration of the surgery. Using scissors, an 8 to 10 mm incision was made in the lateral flank of the skin. A tumor fragment weighing between 50 and 150 mg was placed under the skin at the incision site using forceps, and staples were used to close the incision. The staples were removed 5 to 7 days after surgery. Starting approximately two weeks after implantation, animals were weighed, and tumors were measured using caliper twice weekly. Tumor volume was calculated using the formula: volume=length×width^2×0.52.
Compound administration began when xenografts reached approximately 100-300 mm3 and continued until control xenografts reached […] of the animal's body weight. Test compounds were administered orally by gastric gavage. Percent tumor growth inhibition (TG) was calculated on the indicated treatment day. Percent TGI is defined as: [1−(del T/del C)]×100%, where del T is the final minus initial average volumes of the treated group, and del C is the final minus initial average volumes of the control group. […] The tested compounds were administered orally. Vehicle control consisted of either 0.5% methylcellulose/0.1% sodium lauryl sulfate or 20% captisol. Tumor volumes were determined by caliper measurement twice a week.

[3] = target: Plk1 (Homo sapiens (Human), UniProt P53350); experiment: PLK1 inhibition assay (radioactive-phosphate incorporation); format: biochemical; settings: Ki(app), read-out: PLK1 - 33P.ENZ - CB 10 Ki
In short: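 Radioactive-phosphate incorporation with 15 nM Plk1 and 9 µM Sam68 substrate, 20 µM [γ-33P]ATP, in 25 mM HEPES pH 7.5, 10 mM MgCl2, 25 mM NaCl, 2 mM DTT, 1.5% DMSO, room temperature, 45 min. Stopped with TCA/cold ATP, filtered, scintillation counted. Ki(app) from non-linear regression of background-corrected initial rates.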

[4] = Mus musculus, 336 h, 100 mpk qd, treatment day 14, read-out: % TGI
[5] = Mus musculus, 288 h, 100 mpk qd, treatment day 12, read-out: % TGI

Plk1, sequence (P53350 whole entry, species assumed): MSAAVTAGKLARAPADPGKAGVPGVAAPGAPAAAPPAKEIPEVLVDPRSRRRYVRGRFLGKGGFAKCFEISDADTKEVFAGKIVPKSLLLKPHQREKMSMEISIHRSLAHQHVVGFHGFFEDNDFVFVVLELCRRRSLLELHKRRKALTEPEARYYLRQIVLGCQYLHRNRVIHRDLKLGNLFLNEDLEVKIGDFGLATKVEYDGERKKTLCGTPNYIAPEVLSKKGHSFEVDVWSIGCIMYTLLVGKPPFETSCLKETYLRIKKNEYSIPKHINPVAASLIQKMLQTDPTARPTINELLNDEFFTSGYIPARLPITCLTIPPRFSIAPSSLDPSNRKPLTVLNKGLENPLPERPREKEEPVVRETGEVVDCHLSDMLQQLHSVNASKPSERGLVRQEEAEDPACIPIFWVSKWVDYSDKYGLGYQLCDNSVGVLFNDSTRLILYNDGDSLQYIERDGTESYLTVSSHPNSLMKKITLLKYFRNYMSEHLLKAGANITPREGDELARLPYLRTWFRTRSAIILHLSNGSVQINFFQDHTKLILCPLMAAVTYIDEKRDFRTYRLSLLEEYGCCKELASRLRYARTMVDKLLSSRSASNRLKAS

Row | Compound | Percent Remaining Activity at 8 hrs after Dosing [1] | Ki [3] | inhibition in vivo at 100 mg/kg [2, 4] | further results
1 | Cc1nc(N[C@H]2C[C@H](Oc3cc(F)c(F)c(F)c3)C2)nc2c1NC(=O)[C@H](C)N2C [Compound 246, (7S)-4,7,8-trimethyl-2-((trans-3-(3,4,5-trifluorophenoxy)cyclobutyl)amino)-7,8-dihydropteridin-6(5H)-one] | 18% | > 4 µM | – | inhibition in vivo at 100 mg/kg ([2]; Mus musculus, 264 h, 100 mpk qd, treatment day 11, read-out: % TGI): 82.6%
2 | Cc1nc(N[C@@H]2CC[C@@H](Oc3cc(F)c(F)c(F)c3)C2)nc2c1N(C)C(=O)[C@H](C)N2C [Compound 272, (S)-4,5,7,8-tetramethyl-2-(((1R,3R)-3-(3,4,5-trifluorophenoxy)cyclopentyl)amino)-7,8-dihydropteridin-6(5H)-one] | 14% | – | 77.9% | –
3 | COc1cc(F)ccc1Cn1cc(CNc2nc(C)c3c(n2)N(C)[C@@H](C)C(=O)N3)cn1 [Compound 83, (7S)-2-(((1-(4-fluoro-2-methoxybenzyl)-1H-pyrazol-4-yl)methyl)amino)-4,7,8-trimethyl-7,8-dihydropteridin-6(5H)-one] | – | – | 97.2% | –
4 | Cc1nc(N(C)Cc2cnn(Cc3ccc(C(F)(F)F)nc3)c2)nc2c1NC(=O)[C@H](C)N2C [Compound 403, (7S)-4,7,8-trimethyl-2-(methyl((1-((6-(trifluoromethyl)pyridin-3-yl)methyl)-1H-pyrazol-4-yl)methyl)amino)-7,8-dihydropteridin-6(5H)-one] | – | – | – | inhibition in vivo at 100 mg/kg [2, 5]: 103%
5 | COc1c(F)cc(Cn2cc(CNc3nc(C)c4c(n3)N(C)[C@@H](C)C(=O)N4)cn2)cc1F [Compound 46, (7S)-2-(((1-(3,5-difluoro-4-methoxybenzyl)-1H-pyrazol-4-yl)methyl)amino)-4,7,8-trimethyl-7,8-dihydropteridin-6(5H)-one] | 20% | > 4 µM | 93.3% | –
6 | Cc1nc(N[C@H]2C[C@H](Oc3cc(F)c(F)c(F)c3)C2)nc2c1N(C)C(=O)[C@H](C)N2C [Compound 253, (7S)-4,5,7,8-tetramethyl-2-((trans-3-(3,4,5-trifluorophenoxy)cyclobutyl)amino)-7,8-dihydropteridin-6(5H)-one] | 15% | > 4 µM | 96.6% | –
7 | CC(=O)N(Cc1cnn(Cc2ccc(C(F)(F)F)nc2)c1)c1nc(C)c2c(n1)N(C)[C@@H](C)C(=O)N2 [Compound 405, (7S)-N-((1-((6-(trifluoromethyl)pyridin-3-yl)methyl)-1H-pyrazol-4-yl)methyl)-N-(4,7,8-trimethyl-6-oxo-5,6,7,8-tetrahydropteridin-2-yl)acetamide] | – | – | – | inhibition in vivo at 100 mg/kg [2, 5]: 91%
8 | Cc1nc(NCc2cnn(Cc3ccc(C(F)(F)F)nc3)c2)nc2c1NC(=O)[C@H](C)N2C [Compound 136, (7S)-4,7,8-trimethyl-2-(((1-((6-(trifluoromethyl)pyridin-3-yl)methyl)-111-pyrazol-4-yl)methyl)amino)-7,8-dihydropteridin-6(5H)-one] | 24% | > 4 µM | – | % TGI ([2]; 100 mpk qd, treatment day 14): 106.65%
9 | Cc1nc(NCc2cnn(Cc3ccc(F)cc3)c2)nc2c1N(C)C(=O)[C@H](C)N2C [Compound 1, (7S)-2-(((1-(4-fluorobenzyl)-1H-pyrazol-4-yl)methyl)amino)-4,5,7,8-tetramethyl-7,8-dihydropteridin-6(5H)-one] | 32% | > 4 µM | – | inhibition in vivo at 200 mg/kg ([2]; Mus musculus, 456 h, 200 mpk bid, treatment day 19, read-out: % TGI): 94.5%
10 | Cc1nc(NCc2cnn(Cc3ccc(F)nc3)c2)nc2c1NC(=O)[C@H](C)N2C [Compound 77] | 30% | – | 98.5% | –
11 | Cc1cc(F)ncc1Cn1cc(CNc2nc(C)c3c(n2)N(C)[C@@H](C)C(=O)N3)cn1 [Compound 94, (7S)-2-(((1-((6-fluoro-4-methylpyridin-3-yl)methyl)-1H-pyrazol-4-yl)methyl)amino)-4,7,8-trimethyl-7,8-dihydropteridin-6(5H)-one] | – | – | 94.5% | –
